Measurements published in patent publication US11542240B2, “STK19 inhibitors for treatment of cancer” (TRUSTEES OF BOSTON UNIVERSITY, priority 2018, dated 2023).

Tests used:
Test in all cases: biochemical
Type in all cases: binding
[1] = biological target: panel of 468 diverse kinases (Homo sapiens, UniProt Q8TBX8); conditions: PIP5K2C; 1000 nM; read-out: Percent Control
[2] = biological target: panel of 468 diverse kinases (Homo sapiens, UniProt Q9H2K8); conditions: TAOK3; 1000 nM; read-out: Percent Control
[3] = biological target: panel of 468 diverse kinases (Homo sapiens, UniProt O43293); conditions: DAPK3; 1000 nM; read-out: Percent Control
[4] = biological target: panel of 468 diverse kinases (Homo sapiens, UniProt Q86UX6); conditions: YANK3; 1000 nM; read-out: Percent Control
[5] = biological target: panel of 468 diverse kinases (Homo sapiens, UniProt Q9UBF8); conditions: PIK4CB; 1000 nM; read-out: Percent Control
Chain of panel of 468 diverse kinases (Homo sapiens, UniProt Q9UBF8) (Q9UBF8 2-816 limits assumed): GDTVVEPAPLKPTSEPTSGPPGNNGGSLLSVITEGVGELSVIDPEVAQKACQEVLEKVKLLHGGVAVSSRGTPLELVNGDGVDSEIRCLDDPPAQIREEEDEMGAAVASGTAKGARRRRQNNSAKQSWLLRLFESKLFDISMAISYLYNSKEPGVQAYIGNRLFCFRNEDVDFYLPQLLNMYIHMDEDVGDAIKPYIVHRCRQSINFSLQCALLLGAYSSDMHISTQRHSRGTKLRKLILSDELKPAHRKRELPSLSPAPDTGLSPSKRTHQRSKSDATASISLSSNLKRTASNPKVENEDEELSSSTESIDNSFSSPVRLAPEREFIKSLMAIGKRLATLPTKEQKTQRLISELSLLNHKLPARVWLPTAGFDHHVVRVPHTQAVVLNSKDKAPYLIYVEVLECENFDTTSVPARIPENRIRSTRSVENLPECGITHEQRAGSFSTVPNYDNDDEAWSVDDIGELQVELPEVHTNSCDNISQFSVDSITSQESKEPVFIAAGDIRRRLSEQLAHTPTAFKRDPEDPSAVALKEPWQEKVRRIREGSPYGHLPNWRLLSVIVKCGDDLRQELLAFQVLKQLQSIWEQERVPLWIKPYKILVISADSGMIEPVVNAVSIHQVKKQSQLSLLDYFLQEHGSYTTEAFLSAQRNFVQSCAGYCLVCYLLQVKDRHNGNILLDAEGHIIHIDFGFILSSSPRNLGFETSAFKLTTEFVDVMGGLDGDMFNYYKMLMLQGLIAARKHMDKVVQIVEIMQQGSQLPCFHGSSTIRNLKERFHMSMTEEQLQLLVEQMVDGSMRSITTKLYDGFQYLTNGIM

[6] = biological target: panel of 468 diverse kinases (Homo sapiens, UniProt Q9NSY1); conditions: BIKE; 1000 nM; read-out: Percent Control
[7] = biological target: panel of 468 diverse kinases (Homo sapiens, UniProt Q9NQU5); conditions: PAK6; 1000 nM; read-out: Percent Control
[8] = biological target: panel of 468 diverse kinases (Homo sapiens, UniProt P00519, E255K); conditions: ABL1(E255K)-phosphorylated; 1000 nM; read-out: Percent Control
[9] = biological target: panel of 468 diverse kinases (Homo sapiens, UniProt Q9UHD2); conditions: TBK1; 1000 nM; read-out: Percent Control
[10] = biological target: panel of 468 diverse kinases (Homo sapiens, UniProt P49336); conditions: CDK8; 1000 nM; read-out: Percent Control
[11] = biological target: panel of 468 diverse kinases (Homo sapiens, UniProt Q9P2K8, S808G); conditions: GCN2(Kin.Dom.2, S808G); 1000 nM; read-out: Percent Control
[12] = biological target: panel of 468 diverse kinases (Homo sapiens, UniProt P42336, Q546K); conditions: PIK3CA(Q546K); 1000 nM; read-out: Percent Control
[13] = biological target: panel of 468 diverse kinases (Homo sapiens, UniProt Q12851); conditions: MAP4K2; 1000 nM; read-out: Percent Control
[14] = biological target: panel of 468 diverse kinases (Homo sapiens, UniProt Q02779); conditions: MLK2; 1000 nM; read-out: Percent Control
[15] = biological target: panel of 468 diverse kinases (Homo sapiens, UniProt P49760); conditions: CLK2; 1000 nM; read-out: Percent Control
[16] = biological target: panel of 468 diverse kinases (Homo sapiens, UniProt Q00526); conditions: CDK3; 1000 nM; read-out: Percent Control
[17] = biological target: panel of 468 diverse kinases (Homo sapiens, UniProt Q13554); conditions: CAMK2B; 1000 nM; read-out: Percent Control
[18] = biological target: panel of 468 diverse kinases (Homo sapiens, UniProt Q16513); conditions: PKN2; 1000 nM; read-out: Percent Control
[19] = biological target: panel of 468 diverse kinases (Homo sapiens, UniProt P24941); conditions: CDK2; 1000 nM; read-out: Percent Control
[20] = biological target: panel of 468 diverse kinases (Homo sapiens, UniProt Q8IVW4); conditions: CDKL3; 1000 nM; read-out: Percent Control
[21] = biological target: panel of 468 diverse kinases (Homo sapiens, UniProt P36888, K663Q); conditions: FLT3(K663Q); 1000 nM; read-out: Percent Control
[22] = biological target: panel of 468 diverse kinases (Homo sapiens, UniProt Q16512); conditions: PKN1; 1000 nM; read-out: Percent Control
Chain of panel of 468 diverse kinases (Homo sapiens, UniProt Q16512) (Q16512 2-942 limits assumed): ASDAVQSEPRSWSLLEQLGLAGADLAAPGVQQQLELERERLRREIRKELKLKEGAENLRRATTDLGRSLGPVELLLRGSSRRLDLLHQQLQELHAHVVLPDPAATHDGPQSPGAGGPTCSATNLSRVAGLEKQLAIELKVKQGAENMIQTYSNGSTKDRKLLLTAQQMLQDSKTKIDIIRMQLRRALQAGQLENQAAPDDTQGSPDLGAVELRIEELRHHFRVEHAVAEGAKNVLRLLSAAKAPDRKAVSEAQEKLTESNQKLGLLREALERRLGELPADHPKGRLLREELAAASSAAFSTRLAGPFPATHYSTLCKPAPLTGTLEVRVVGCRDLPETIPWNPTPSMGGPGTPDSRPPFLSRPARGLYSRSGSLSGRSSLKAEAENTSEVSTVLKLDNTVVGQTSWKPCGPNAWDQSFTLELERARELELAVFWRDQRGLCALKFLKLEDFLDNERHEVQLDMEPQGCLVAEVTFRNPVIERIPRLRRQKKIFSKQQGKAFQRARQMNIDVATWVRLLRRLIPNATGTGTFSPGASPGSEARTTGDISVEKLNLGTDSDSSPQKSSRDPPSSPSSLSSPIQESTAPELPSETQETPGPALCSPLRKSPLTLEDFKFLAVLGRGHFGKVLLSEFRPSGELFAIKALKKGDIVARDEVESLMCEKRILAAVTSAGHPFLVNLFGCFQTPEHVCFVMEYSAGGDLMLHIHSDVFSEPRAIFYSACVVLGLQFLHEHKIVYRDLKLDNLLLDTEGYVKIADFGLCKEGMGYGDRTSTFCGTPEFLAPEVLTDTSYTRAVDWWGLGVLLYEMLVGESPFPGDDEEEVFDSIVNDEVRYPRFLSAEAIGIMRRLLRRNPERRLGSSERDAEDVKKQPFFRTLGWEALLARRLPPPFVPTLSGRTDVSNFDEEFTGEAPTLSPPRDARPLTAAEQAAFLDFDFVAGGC

[23] = biological target: panel of 468 diverse kinases (Homo sapiens, UniProt Q96Q40); conditions: PFTAIRE2; 1000 nM; read-out: Percent Control
[24] = biological target: panel of 468 diverse kinases (Homo sapiens, UniProt P36888, N841I); conditions: FLT3(N841I); 1000 nM; read-out: Percent Control
[25] = biological target: panel of 468 diverse kinases (Homo sapiens, UniProt O60674); conditions: JAK2(JH1domain-catalytic); 1000 nM; read-out: Percent Control
[26] = biological target: panel of 468 diverse kinases (Homo sapiens, UniProt Q16566); conditions: CAMK4; 1000 nM; read-out: Percent Control
[27] = biological target: panel of 468 diverse kinases (Homo sapiens, UniProt Q02156); conditions: PRKCE; 1000 nM; read-out: Percent Control
[28] = biological target: panel of 468 diverse kinases (Homo sapiens, UniProt O15146); conditions: MUSK; 1000 nM; read-out: Percent Control
Chain of panel of 468 diverse kinases (Homo sapiens, UniProt O15146) (O15146 24-869 limits assumed): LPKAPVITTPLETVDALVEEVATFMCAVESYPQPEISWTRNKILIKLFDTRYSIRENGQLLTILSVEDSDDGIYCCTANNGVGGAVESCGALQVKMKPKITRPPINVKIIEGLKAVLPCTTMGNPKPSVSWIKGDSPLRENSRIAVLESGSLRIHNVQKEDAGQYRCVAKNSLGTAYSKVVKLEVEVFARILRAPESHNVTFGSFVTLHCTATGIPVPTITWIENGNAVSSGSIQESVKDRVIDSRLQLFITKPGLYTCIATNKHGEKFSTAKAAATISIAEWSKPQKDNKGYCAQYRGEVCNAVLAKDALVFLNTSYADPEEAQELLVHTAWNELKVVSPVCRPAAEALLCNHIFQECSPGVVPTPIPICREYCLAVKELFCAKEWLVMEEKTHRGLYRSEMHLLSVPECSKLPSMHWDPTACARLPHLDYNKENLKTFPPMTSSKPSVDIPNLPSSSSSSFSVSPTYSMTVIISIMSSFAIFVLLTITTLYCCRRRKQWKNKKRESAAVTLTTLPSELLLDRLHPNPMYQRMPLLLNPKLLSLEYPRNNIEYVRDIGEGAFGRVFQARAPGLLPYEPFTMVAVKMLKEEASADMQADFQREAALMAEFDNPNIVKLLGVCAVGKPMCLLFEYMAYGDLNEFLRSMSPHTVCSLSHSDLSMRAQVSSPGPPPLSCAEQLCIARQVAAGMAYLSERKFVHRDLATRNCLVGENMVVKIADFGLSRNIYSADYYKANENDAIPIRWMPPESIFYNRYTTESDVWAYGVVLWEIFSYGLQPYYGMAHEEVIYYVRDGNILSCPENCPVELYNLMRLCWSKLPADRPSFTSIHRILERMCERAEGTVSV

[29] = biological target: panel of 468 diverse kinases (Homo sapiens, UniProt P21860); conditions: ERBB3; 1000 nM; read-out: Percent Control
Chain of panel of 468 diverse kinases (Homo sapiens, UniProt P21860) (P21860 20-1342 limits assumed): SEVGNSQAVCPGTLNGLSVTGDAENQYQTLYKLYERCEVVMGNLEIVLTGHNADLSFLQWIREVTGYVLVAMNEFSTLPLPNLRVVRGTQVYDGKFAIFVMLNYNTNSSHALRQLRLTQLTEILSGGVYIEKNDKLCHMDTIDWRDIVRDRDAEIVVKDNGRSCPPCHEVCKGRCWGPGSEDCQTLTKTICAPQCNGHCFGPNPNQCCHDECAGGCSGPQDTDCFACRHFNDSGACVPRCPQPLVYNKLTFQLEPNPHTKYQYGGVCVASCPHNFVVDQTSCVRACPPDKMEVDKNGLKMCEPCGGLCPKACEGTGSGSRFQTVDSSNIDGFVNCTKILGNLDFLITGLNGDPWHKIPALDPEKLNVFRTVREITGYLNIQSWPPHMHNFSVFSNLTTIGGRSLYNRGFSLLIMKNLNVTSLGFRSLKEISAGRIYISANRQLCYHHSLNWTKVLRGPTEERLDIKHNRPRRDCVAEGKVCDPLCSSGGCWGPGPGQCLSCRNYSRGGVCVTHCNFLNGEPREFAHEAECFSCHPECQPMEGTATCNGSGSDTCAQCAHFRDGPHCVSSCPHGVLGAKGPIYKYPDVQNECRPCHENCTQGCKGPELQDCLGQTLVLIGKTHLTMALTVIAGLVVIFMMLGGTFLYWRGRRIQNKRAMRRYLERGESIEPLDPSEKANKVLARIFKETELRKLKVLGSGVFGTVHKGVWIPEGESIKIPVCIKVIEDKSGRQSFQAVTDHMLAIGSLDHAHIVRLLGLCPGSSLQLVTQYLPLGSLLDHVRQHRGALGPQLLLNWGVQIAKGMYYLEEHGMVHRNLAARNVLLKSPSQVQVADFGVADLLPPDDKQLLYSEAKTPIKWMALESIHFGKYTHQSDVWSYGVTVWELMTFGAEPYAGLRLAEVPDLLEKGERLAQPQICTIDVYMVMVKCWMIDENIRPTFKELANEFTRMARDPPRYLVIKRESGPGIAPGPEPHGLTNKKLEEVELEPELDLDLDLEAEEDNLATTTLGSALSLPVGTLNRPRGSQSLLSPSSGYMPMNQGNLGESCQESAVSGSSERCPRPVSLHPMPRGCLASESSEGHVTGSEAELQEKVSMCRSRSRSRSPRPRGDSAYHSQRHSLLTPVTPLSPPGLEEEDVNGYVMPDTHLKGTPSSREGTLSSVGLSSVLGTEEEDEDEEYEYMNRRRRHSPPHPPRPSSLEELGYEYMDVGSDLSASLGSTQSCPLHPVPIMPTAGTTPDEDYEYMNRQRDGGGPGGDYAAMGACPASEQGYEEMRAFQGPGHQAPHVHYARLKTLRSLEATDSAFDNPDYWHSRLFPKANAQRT

[30] = biological target: panel of 468 diverse kinases (Homo sapiens, UniProt Q8NFD2); conditions: ANKK1; 1000 nM; read-out: Percent Control
[31] = biological target: panel of 468 diverse kinases (Homo sapiens, UniProt Q8IW41); conditions: MAPKAPK5; 1000 nM; read-out: Percent Control

Chain of panel of 468 diverse kinases (Homo sapiens, UniProt Q8TBX8) (Q8TBX8 2-421 limits assumed): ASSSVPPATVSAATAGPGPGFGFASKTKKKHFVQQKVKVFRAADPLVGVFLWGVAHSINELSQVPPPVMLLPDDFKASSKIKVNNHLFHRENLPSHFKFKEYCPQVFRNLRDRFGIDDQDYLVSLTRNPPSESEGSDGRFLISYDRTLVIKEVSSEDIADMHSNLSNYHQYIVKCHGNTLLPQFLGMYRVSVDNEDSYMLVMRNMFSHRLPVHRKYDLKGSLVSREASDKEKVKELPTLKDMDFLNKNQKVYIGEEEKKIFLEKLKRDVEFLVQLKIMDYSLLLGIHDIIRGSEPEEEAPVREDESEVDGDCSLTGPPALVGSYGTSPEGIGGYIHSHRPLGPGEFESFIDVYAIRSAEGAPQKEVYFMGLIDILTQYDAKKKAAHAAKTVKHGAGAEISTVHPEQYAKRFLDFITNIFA

Work on `COc1cc2nc(NC3CC3)nc(NC3CCN(C(C)C)CC3)c2cc1OC` [Formula IV] yielded a remaining activity at 1 µM [1] of 80%, a remaining activity at 1 µM [2] of 54% and a remaining activity at 1 µM [3] of 89%. For the same compound, the remaining activity at 1 µM [4] was 94%, the remaining activity at 1 µM [5] was 100% and the remaining activity at 1 µM [6] was 100%. The remaining activity at 1 µM [7] was 91%, the remaining activity at 1 µM [8] was 89% and the remaining activity at 1 µM [9] was 98%. For the same compound, the remaining activity at 1 µM [10] was 96%, the remaining activity at 1 µM [11] was 94% and the remaining activity at 1 µM [12] was 54%. It also gave a remaining activity at 1 µM [13] of 87%, a remaining activity at 1 µM [14] of 95% and a remaining activity at 1 µM [15] of 90%. For the same compound, the remaining activity at 1 µM [16] was 100%, the remaining activity at 1 µM [17] was 91% and the remaining activity at 1 µM [18] was 98%. For the same compound, the remaining activity at 1 µM [19] was 91%, the remaining activity at 1 µM [20] was 66% and the remaining activity at 1 µM [21] was 98%. For the same compound, the remaining activity at 1 µM [22] was 99%, the remaining activity at 1 µM [23] was 90% and the remaining activity at 1 µM [24] was 63%. The remaining activity at 1 µM [25] was 74%, the remaining activity at 1 µM [26] was 98% and the remaining activity at 1 µM [27] was 100%. The remaining activity at 1 µM [28] was 83%, the remaining activity at 1 µM [29] was 100% and the remaining activity at 1 µM [30] was 50%. It also gave a remaining activity at 1 µM [31] of 63%.
